Legend:
USP7-Q351S = target: T1, USP7-Q351S (Homo sapiens, UniProt Q93009, Q351S); experiment: Ub-AMC enzymatic assay, USP7-Q351S mutant; assay type: biochemical; conditions: 6-hr pre-incubation
T1 construct: made in house
Method: Full length USP7 was tested for its activity in Ubiquitin-AMC assay in presence or absence of inhibitors. USP7 (5 nM) was pre-incubated for 6 hours at room temperature with different concentrations of inhibitors or DMSO as a control in 50 mM HEPES pH 7.5, 0.5 mM EDTA, 11 uM ovalbumin, and 5 mM DTT. Ubiquitin-AMC (Boston Biochem) was then added to a final concentration of 500 nM. The initial rate of the reaction was measured by collecting fluorescence data at one minute intervals over 30-minute period using a Clariostar fluorescence plate reader at excitation and emission wavelength of 345 and 445 nm respectively. The calculated initial rate values were plotted against inhibitor concentrations to determine IC50s. All the experimental data were plotted using Prism GraphPad. All assays for each compound were performed at least twice for each compound.

[1] = target: T2, USP7 C223A catalytic domain (Homo sapiens, UniProt Q93009, C223A); experiment: Intact MS labeling of USP7 C223A catalytic domain; assay type: binding; conditions: 2.5-fold molar excess, 2 hours
T2 construct: catalytic domain (208–560) used were cloned as described; inferred from Ni-NTA purification; made in house; host or cells: E. coli BL21 (DE3)
Method: The constructs encoding USP7 full length (amino acids 1–1102) and catalytic domain (208–560) used were cloned as described. Both constructs were overexpressed in E. coli BL21 (DE3). Cells were grown at 37 °C to an OD of 0.9, cooled to 16 °C, induced with 500 μM isopropyl-1-thio-D-galactopyranoside (IPTG), incubated overnight at 16 °C, collected by centrifugation, and stored at −80 °C. Cell pellets were sonicated in lysis buffer (25 mM Tris pH 8, 1 M NaCl, and 10 mM BME) supplemented with 10 μg/ml phenylmethanesulfonylfluoride (PMSF) and the resulting lysate was centrifuged at 30,000 xg for 40 min. Ni-NTA beads (Qiagen) were mixed with lysate supernatant for 2 hours, and washed with lysis buffer supplemented with 25 mM imidazole. The bound protein was eluted with lysis buffer supplemented with 300 mM imidazole. […]
Figure S1: Full-length recombinant purified USP7 was pre-incubated with XL041 at the indicated concentrations for the indicated times, then Ub-AMC was added and fluorescence was monitored. […]
Figure S5: MCF7 cells were transfected with the indicated pcDNA constructs for 48 hours, then treated with XL177A at the indicated concentration for 3 hours. Cells were lysed, and FLAG-USP7 target engagement was assessed with the DUB ABP HA-Ub-VS. Densitometry was performed using ImageStudio software and analyzed using Graphpad Prism. […]

USP7 = USP7 (Homo sapiens, UniProt Q93009); experiment: In vitro DUB profiling (Ubiquigent, Ub-Rho), USP7; assay type: biochemical; conditions: 1 µM, 15-minute pre-treatment
Method: Compounds were screened using the Ubiquigent Drug Profiler SPT system (www.ubiquigent.com/drug-discovery-services/dubprofiler/). Each of 41 purified DUBs was incubated with compound for 15 minutes, then ubiquitin rhodamine 110 (Ub-Rho) was added and percent inhibition determined based on fluorescence relative to a DMSO control.

Sequence of USP7 (Q93009 whole entry): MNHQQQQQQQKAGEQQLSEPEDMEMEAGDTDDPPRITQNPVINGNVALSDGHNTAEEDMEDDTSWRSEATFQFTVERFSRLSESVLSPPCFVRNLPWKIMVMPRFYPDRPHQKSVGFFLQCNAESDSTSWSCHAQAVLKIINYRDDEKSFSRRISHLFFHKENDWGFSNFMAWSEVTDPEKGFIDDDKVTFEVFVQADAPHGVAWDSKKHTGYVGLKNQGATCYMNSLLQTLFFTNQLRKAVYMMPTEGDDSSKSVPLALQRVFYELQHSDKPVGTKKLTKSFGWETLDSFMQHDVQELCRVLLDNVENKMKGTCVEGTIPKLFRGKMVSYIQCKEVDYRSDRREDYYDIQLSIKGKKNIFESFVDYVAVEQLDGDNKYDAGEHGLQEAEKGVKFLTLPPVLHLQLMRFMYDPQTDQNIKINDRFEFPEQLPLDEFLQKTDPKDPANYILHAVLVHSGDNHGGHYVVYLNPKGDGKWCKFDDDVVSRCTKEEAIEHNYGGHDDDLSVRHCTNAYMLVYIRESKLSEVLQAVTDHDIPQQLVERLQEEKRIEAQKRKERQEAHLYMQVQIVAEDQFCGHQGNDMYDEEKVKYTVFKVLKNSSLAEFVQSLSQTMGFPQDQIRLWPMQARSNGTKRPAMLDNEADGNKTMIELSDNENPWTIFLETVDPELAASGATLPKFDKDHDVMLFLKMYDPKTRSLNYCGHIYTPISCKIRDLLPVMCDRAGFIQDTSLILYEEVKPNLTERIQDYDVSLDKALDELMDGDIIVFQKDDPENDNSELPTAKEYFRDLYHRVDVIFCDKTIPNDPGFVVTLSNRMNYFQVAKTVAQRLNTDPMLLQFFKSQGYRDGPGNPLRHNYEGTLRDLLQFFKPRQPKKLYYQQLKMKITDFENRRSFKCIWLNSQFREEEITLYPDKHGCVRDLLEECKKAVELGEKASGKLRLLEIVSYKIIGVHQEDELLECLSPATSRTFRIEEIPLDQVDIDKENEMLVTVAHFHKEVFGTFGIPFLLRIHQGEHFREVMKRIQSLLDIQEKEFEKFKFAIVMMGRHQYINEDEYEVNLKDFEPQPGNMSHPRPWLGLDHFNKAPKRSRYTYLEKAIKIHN
T2 sequence (Q93009 208-560 C223A): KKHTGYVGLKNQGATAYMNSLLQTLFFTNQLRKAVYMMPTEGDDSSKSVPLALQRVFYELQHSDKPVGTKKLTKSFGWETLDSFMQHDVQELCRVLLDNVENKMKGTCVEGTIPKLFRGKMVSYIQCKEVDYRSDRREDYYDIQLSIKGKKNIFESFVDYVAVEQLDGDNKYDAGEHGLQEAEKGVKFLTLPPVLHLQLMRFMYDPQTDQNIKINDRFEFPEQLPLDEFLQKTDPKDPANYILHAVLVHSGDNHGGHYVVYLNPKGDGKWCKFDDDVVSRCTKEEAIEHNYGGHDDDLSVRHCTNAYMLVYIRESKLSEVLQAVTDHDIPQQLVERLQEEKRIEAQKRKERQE
T1 sequence (Q93009 whole entry Q351S): as the sequence (Q93009 whole entry) above, with Q351S counted along it

- IC50 (USP7-Q351S): 189 nM
- mass shift with USP7 C223A [1]: no mass shift was detected
- USP7 enzymatic activity (USP7): completely inhibited
SMILES: CN1CCN(CCC(=O)Nc2ccc3c(=O)n(CC4(O)CCN(C(=O)[C@@H](CCCNC(=O)c5ccc6c(Cl)c7c(nc6c5)CCCC7)Cc5ccccc5)CC4)cnc3c2)CC1 [XL177A]
